Columns and labels:
Assay in all cases: Bliss excess, mean over the matrix (fraction); higher = more synergy
H4 (Low Grade Glioma) = tested on: H4 (Low Grade Glioma)
Outline: (§1)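 After 24 hours at 37°C and 5% CO2 in 1536-well plates, cells in DMEM/F12 or RPMI plus 10% FBS received two-drug dose matrices for 72 hours. Viability came from CellTiter-Glo 2.0 luminescence and was scaled as inhibition, anchored at 0 by vehicle wells and at 1 by blank wells. Combination Emax is taken as the second-highest inhibition in the matrix, and Bliss excess as the observed combination effect less EA + EB − EA·EB, with EA and EB the single-agent effects.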

[1] = tested on: KG-1 (Acute Myeloid Leukemia)
Outline: as §1

EW-22 (Ewing's Sarcoma) = tested on: EW-22 (Ewing's Sarcoma)
Outline: as §1

[2] = tested on: SK-LMS-1 (Other Solid Carcinomas)
Outline: as §1

D-392MG (Glioblastoma) = tested on: D-392MG (Glioblastoma)
Outline: as §1

HuO9 (Osteosarcoma) = tested on: HuO9 (Osteosarcoma)
Outline: as §1

[3] = tested on: ETK-1 (Biliary Tract Carcinoma)
Outline: as §1

[4] = tested on: SW48 (Colorectal Carcinoma)
Outline: as §1

[5] = tested on: EFM-192A (Breast Carcinoma)
Outline: as §1

[6] = tested on: P31-FUJ (Acute Myeloid Leukemia)
Outline: as §1

[7] = tested on: SNU-61 (Colorectal Carcinoma)
Outline: as §1

[8] = tested on: SNG-M (Endometrial Carcinoma)
Outline: as §1

[9] = tested on: SLVL (B-Cell Non-Hodgkin's Lymphoma)
Outline: as §1

[10] = tested on: GDM-1 (Acute Myeloid Leukemia)
Outline: as §1

SK-MEL-1 (Melanoma) = tested on: SK-MEL-1 (Melanoma)
Outline: as §1

[11] = tested on: MEG-01 (Chronic Myelogenous Leukemia)
Outline: as §1

MSTO-211H (Mesothelioma) = tested on: MSTO-211H (Mesothelioma)
Outline: as §1

[12] = tested on: RCC10RGB (Kidney Carcinoma)
Outline: as §1

[13] = tested on: TYK-nu (Ovarian Carcinoma)
Outline: as §1

[14] = tested on: CAL-39 (Other Solid Carcinomas)
Outline: as §1

SMILES	Bliss excess (H4 (Low Grade Glioma))	Bliss excess [1]	Bliss excess (EW-22 (Ewing's Sarcoma))	Bliss excess [2]	Bliss excess (D-392MG (Glioblastoma))	Bliss excess (HuO9 (Osteosarcoma))	Bliss excess [3]	Bliss excess [4]	Bliss excess [5]	Bliss excess [6]	Bliss excess [7]	Bliss excess [8]	Bliss excess [9]	Bliss excess [10]	Bliss excess (SK-MEL-1 (Melanoma))	Bliss excess [11]	Bliss excess (MSTO-211H (Mesothelioma))	Bliss excess [12]	Bliss excess [13]	Bliss excess [14]
CC1(C)CCC(CN2CCN(c3ccc(C(=O)NS(=O)(=O)c4ccc(NCC5CCOCC5)c([N+](=O)[O-])c4)c(Oc4cnc5[nH]ccc5c4)c3)CC2)=C(c2ccc(Cl)cc2)C1 [Venetoclax] + Cc1cc2ncnn2cc1Nc1ncc2c(n1)n(C1CCOCC1)c(=O)n2C [AZD7648] (first compound max 1 µM, 7x7, partner max 10 µM)	-0.0541	0.0848	-0.0094	-0.0292	-0.0374	0.0557	0.0273	0.0327	-0.0046	-0.015	0.0023	-0.0516	0.0013	0.0419	-0.0242	-0.0249	-0.0564	-0.0536	-0.0074	-0.104
CN(CCO)CC[C@H](CSc1ccccc1)Nc1ccc(S(=O)(=O)NC(=O)c2ccc(N3CCC([C@@H](O)c4ccccc4-c4ccc(Cl)cc4)CC3)cc2)cc1S(=O)(=O)C(F)(F)F [AZD4320] + C=CCn1c(=O)c2cnc(Nc3ccc(N4CCN(C)CC4)cc3)nc2n1-c1cccc(C(C)(C)O)n1 [AZD1775] (first compound max 1 µM, partner max 1 µM)	0.0551	0.108	0.0897	0.0447	0.0474	0.0484	-0.0295	0.038	0.0171	0.113	-0.0175	0.104	0.0422	0.0814	-0.0091	0.0516	0.0585	-0.0183	-0.0845	-0.0529
Cc1cc2ncnn2cc1Nc1ncc2c(n1)n(C1CCOCC1)c(=O)n2C [AZD7648] + C=CCn1c(=O)c2cnc(Nc3ccc(N4CCN(C)CC4)cc3)nc2n1-c1cccc(C(C)(C)O)n1 [AZD1775] (first compound max 10 µM, partner max 1 µM)	-0.082	-0.0652	-0.0043	-0.0661	0.0035	-0.0298	-0.0144	-0.0702	0.0338	-0.0027	-0.049	0.0527	-0.035	-0.0239	-0.0561	-0.0209	0.067	0.0016	-0.0394	-0.0211
COc1cccc(OCCCN)c1-c1cc(Nc2cnc(C#N)cn2)n[nH]1 [Prexasertib] + CN(C)CCCOc1ccc(-c2ccc3ncc4c(c3c2)n(C2CCOCC2)c(=O)n4C)cn1 [AZD0156] (first compound max 1 µM, 7x7, partner max 1 µM)	-0.0309	-0.0289	-0.05	-0.02	-0.0235	-0.0958	0.0229	-0.0227	0.0078	0.009	-0.0459	0.0305	0.0036	-0.0491	-0.0194	-0.0411	-0.0164	-0.0296	-0.0627	0.0099
COc1cccc(OCCCN)c1-c1cc(Nc2cnc(C#N)cn2)n[nH]1 [Prexasertib] + C=CCn1c(=O)c2cnc(Nc3ccc(N4CCN(C)CC4)cc3)nc2n1-c1cccc(C(C)(C)O)n1 [AZD1775] (first compound max 1 µM, partner max 1 µM)	0.0726	0.0038	0.223	0.0434	0.109	0.109	0.0651	0.1	0.0662	0.0104	-0.0124	0.0698	0.0481	0.0096	-0.0084	0.0016	0.0083	-0.0202	0.0459	0.0679
CC(=O)c1c(C)c2cnc(Nc3ccc(N4CCNCC4)cn3)nc2n(C2CCCC2)c1=O [Palbociclib] + Cn1cnc2c(F)c(Nc3ccc(Br)cc3Cl)c(C(=O)NOCCO)cc21 [Selumetinib] (first compound max 10 µM, 7x7, partner max 10 µM)	0.0308	-0.0108	-0.0158	0.0539	-0.0665	-0.064	-0.0351	0.0668	-0.0289	0.0152	0.0179	-0.117	-0.0355	0.0343	-0.0559	0.0404	-0.0714	-0.0121	-0.065	0.151
CN(C)CCCOc1ccc(-c2ccc3ncc4c(c3c2)n(C2CCOCC2)c(=O)n4C)cn1 [AZD0156] + C=CCn1c(=O)c2cnc(Nc3ccc(N4CCN(C)CC4)cc3)nc2n1-c1cccc(C(C)(C)O)n1 [AZD1775] (first compound max 1 µM, partner max 1 µM)	-0.0516	-0.0194	0.006	-0.0203	-0.0461	-0.0017	-0.0096	-0.0172	-0.0567	0.0046	-0.0277	-0.0562	-0.0203	-0.0566	0.0161	0.0032	0.0099	-0.0775	-0.0836	-0.0326
COc1cccc2c1C(=O)c1c(O)c3c(c(O)c1C2=O)C[C@@](O)(C(=O)CO)C[C@@H]3O[C@H]1C[C@H](N)[C@H](O)[C@H](C)O1 [Doxorubicin] + Cc1cc2ncnn2cc1Nc1ncc2c(n1)n(C1CCOCC1)c(=O)n2C [AZD7648] (first compound max 1 µM, 7x7, partner max 10 µM)	0.0066	0.0044	0.061	0.0633	0.0458	0.0731	0.0878	0.0535	-0.0216	0.108	-0.0124	0.0194	0.0656	0.112	0.0138	0.0698	0.115	-0.0449	0.0591	0.0233
NC1(C(=O)N[C@@H](CCO)c2ccc(Cl)cc2)CCN(c2ncnc3[nH]ccc23)CC1 [Capivasertib] + C[C@@H]1COCCN1C2=NC(=NC(=C2)C3(CC3)[S@](=N)(=O)C)C4=C5C=CNC5=NC=C4 [AZD6738] (first compound max 10 µM, 7x7, partner max 10 µM)	-0.0667	-0.026	-0.0047	0.0094	-0.0393	-0.0535	-0.066	-0.0387	-0.0546	-0.145	-0.0316	-0.0984	-0.0936	-0.024	0.0147	-0.0464	-0.0088	-0.134	-0.109	0.0019
NC1(C(=O)N[C@@H](CCO)c2ccc(Cl)cc2)CCN(c2ncnc3[nH]ccc23)CC1 [Capivasertib] + COc1nnc2ccc(N3CCC(c4ccc(OCCN5CCN(C)C(=O)[C@H]5C)cc4)CC3)nn12 [AZD5153] (first compound max 10 µM, 7x7, partner max 1 µM)	-0.0057	-0.0162	0.08	0.0014	-0.015	-0.0142	0.0486	-0.0226	0.0866	0.0066	-0.01	0.0787	-0.102	0.0163	0.0315	-0.0355	0.0056	0.0221	0.0114	-0.0579
CS(=O)(=O)CCNCc1ccc(-c2ccc3ncnc(Nc4ccc(OCc5cccc(F)c5)c(Cl)c4)c3c2)o1 [Lapatinib] + C[C@@H](Oc1cc(-c2cnn(C3CCNCC3)c2)cnc1N)c1c(Cl)ccc(F)c1Cl [Crizotinib] (first compound max 10 µM, 7x7, partner max 10 µM)	0.002	-0.0028	-0.0241	-0.0611	-0.0528	-0.069	-0.0596	-0.0662	0.0063	-0.142	0.0198	-0.0413	-0.0518	-0.0027	-0.0827	-0.0083	-0.0667	-0.0298	-0.0403	0.026
CC1(C)CCC(CN2CCN(c3ccc(C(=O)NS(=O)(=O)c4ccc(NCC5CCOCC5)c([N+](=O)[O-])c4)c(Oc4cnc5[nH]ccc5c4)c3)CC2)=C(c2ccc(Cl)cc2)C1 [Venetoclax] + C1CN(CCC1(C(=O)N[C@@H](CCO)C2=CC=C(C=C2)Cl)N)C3=NC=NC4=C3C=CN4 [Capivasertib] (first compound max 1 µM, 7x7, partner max 3 µM)	-0.0366	0.041	0.0137	-0.0485	-0.0437	-0.0237	-0.0619	-0.0679	-0.046	0.0141	-0.0321	0.0086	-0.0284	-0.0325	-0.0561	-0.0349	-0.0496	-0.0402	-0.0343	-0.0183
CC(=O)c1c(C)c2cnc(Nc3ccc(N4CCNCC4)cn3)nc2n(C2CCCC2)c1=O [Palbociclib] + Cc1c2c(nn1C)CSCc1cc(n(C)n1)CSc1cc(c3ccccc3c1)OCCCc1c(C(=O)O)n(C)c3c-2c(Cl)ccc13 [AZD5991] (first compound max 10 µM, 7x7, partner max 1 µM)	-0.0371	-0.0169	0.0039	-0.0081	0.0189	0.0088	-0.0808	0.0255	-0.119	-0.11	-0.0371	-0.0233	-0.0393	0.0919	-0.0014	0.0338	-0.0265	-0.0083	-0.0289	0.0054
Cn1cnc2c(F)c(Nc3ccc(Br)cc3Cl)c(C(=O)NOCCO)cc21 [Selumetinib] + C[C@@H]1COCCN1C2=NC(=NC(=C2)C3(CC3)[S@](=N)(=O)C)C4=C5C=CNC5=NC=C4 [AZD6738] (first compound max 10 µM, 7x7, partner max 10 µM)	-0.0067	0.0218	-0.028	0.0453	0.0013	0.0042	-0.036	-0.017	-0.0365	-0.0802	0.065	-0.0561	-0.107	0.0409	-0.0312	0.0135	-0.0453	0.119	0.089	-0.0152
